From patent publication US7662994B2, “Method for the preparation of crystalline dexloxiglumide and products obtained” (Rottapharm S.p.A., priority 2003, dated 2010)

How the values were obtained:
[1] = Compressibility of the powder (Carr index, USP 24/NF19); type: physicochemical; conditions: 100 g powder, 250 ml graduated cylinder, 2000 strokes; percentage values 5-15 excellent, >33 very poor
Description: a) measurement of the compressibility of the powder which is expressed by the following formula (Carr index; (according to USP 24/NF19, p. 1914): [formula] where Vo and Vf are respectively the volumes occupied by a predetermined weighed quantity of powder (generally 100 g) placed in a 250 ml graduated cylinder and measured before and after a certain number of mechanical strokes (generally 2000 strokes); the smaller this index is the better will be the behaviour of the powder upon compression; for example, percentage values between 5-15 are considered excellent, whereas values greater than 33 are considered very poor (see J. I. Wells—Pharmaceutical Preformulation; Ellis H. Lim; J. Wiley and Sons Ed. p.

[2] = Particle size distribution by laser light scattering (Malvern Master Sizer 2000, wet method); type: physicochemical; conditions: for span index: (D90-D10)/D50 type width of distribution; for D50 (mean size measurement) / percentage of particles <10 μm (fine particles): wet method, H2O with 0.5% Tween 20, sonication 60 sec
Description: The PSD is determined by the “laser light scattering” technique, that is, the scattering (diffraction) which a high-energy, monochromatic light beam (a laser beam) undergoes when it encounters a particle of a particular size on its optical path. The powder to be examined may be prepared by various techniques, both dry and wet; in the latter case, the selection of the dispersant should take account of the chemical/physical properties of the raw material to be analyzed. Once the sample has been analyzed, the results can be given as histograms in which each individual column represents a band of a certain width (in microns), whereas the height represents the percentage of sample present in that band. The principal statistical distribution values calculated by the software of this apparatus are, amongst other things, the D50, that is, the size in microns for which 50% of the sample is smaller and 50% is larger. Another important measurement is the “span”, which is the measurement of the width of the distribution. This width is calculated by the following ratio: [formula] where D90 and D10 have meanings analogous to that of D50. The smaller this “span” index is, the more reliable the particle distribution of the sample examined will be. The apparatus used for the determination of the PSD was a Malvern Master Sizer 2000 and the method used was the wet method with the use of H2O as the dispersant with a concentration of 0.5% of Tween 20 as surfactant. The measurements were taken at a concentration of dexloxiglumide of about 0.06-0.08% after ultrasound sonication for 60 sec which enabled the accumulations to be broken up without breaking the crystals. Note: The particle sizes given both in the text and in the claims are not absolute quantities but are relative to the measurement method used (in this case the Malvern Master Sizer 2000 instrument with the method described in Example 1).

[3] = target: T1, type-1 cholecystokinin (CCK1) receptor (Homo sapiens, UniProt P32238); conditions: cited from earlier work
T1 sequence (P32238 1-428): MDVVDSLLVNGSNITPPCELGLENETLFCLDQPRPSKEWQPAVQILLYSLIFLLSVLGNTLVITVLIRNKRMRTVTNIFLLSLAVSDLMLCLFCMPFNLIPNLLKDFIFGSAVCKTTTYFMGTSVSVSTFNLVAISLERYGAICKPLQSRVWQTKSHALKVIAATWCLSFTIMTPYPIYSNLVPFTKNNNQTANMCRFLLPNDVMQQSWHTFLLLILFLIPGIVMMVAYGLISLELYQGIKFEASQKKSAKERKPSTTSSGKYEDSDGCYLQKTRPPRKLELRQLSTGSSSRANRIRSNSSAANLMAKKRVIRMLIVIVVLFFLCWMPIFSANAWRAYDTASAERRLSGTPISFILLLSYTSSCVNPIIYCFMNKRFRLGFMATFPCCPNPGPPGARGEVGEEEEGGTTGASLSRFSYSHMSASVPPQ

[4] = Morphological analysis of the crystals by microscopy (300x); type: physicochemical; conditions: photographs, 300x magnification
Description: Morphological analysis performed by microscopic analysis of the crystals obtained by crystallization from ethanol/H2O and isopropyl ether, respectively, also confirms what had already been seen with by particle-size analysis by laser-beam diffraction.
It can be seen from a comparison of the two images of FIG. 2 that the product crystallized from isopropyl ether has crystals with well-defined, lamellar shapes with an average diameter of about 70-100 μm, whereas the other lot has crystals of irregular shape with very many smaller aggregated crystals.

Carr index [1]	shape of particle distribution [2]	span index [2]	D50 (mean size measurement) [2] [μm]	percentage of particles <10 μm (fine particles) [2] [%]	average diameter of crystals [4]	Compound	antagonistic activity towards CCK1 receptor [3]
> 33	bimodal	4.668	23.6	29.5	–	CCCCCN(CCCOC)C(=O)[C@@H](CCC(=O)O)NC(=O)c1ccc(Cl)c(Cl)c1 [dexloxiglumide obtained by crystallization from H2O/ethanol ] [(R)-4-[(3,4-dichlorobenzoyl)amino]-5-[(3-methoxypropyl)-pentylamino]-5-oxo-pentanoic acid, reference compound]	–
–	–	–	–	–	–	CCCCCN(CCCOC)C(=O)[C@@H](CCC(=O)O)NC(=O)c1ccc(Cl)c(Cl)c1 [Dexloxiglumide, (R)-4-[(3,4-dichlorobenzoyl)amino]-5-[(3-methoxypropyl)-pentylamino]-5-oxo-pentanoic acid]	potent antagonistic activity
about 12	practically unimodal	1.608	97.3	4.23	70-100 μm	CCCCCN(CCCOC)C(=O)[C@@H](CCC(=O)O)NC(=O)c1ccc(Cl)c(Cl)c1 [lot PP9282/43851, (R)-4-[(3,4-dichlorobenzoyl)amino]-5-[(3-methoxypropyl)-pentylamino]-5-oxo-pentanoic acid]	–
